Data set [1] deals with Phosphodiesterase (PDE) von Humanthrombozyten. Put plainly: PDE inhibition (PDE assay), enzyme from human platelets, 3H-cAMP substrate. The format is biochemical. The note with it: 1 µmol/l 3H-cAMP as substrate, linear regression, read-out: PDE-Hemmung (IC50 in µmol/l) Thrombozyten. The text has this: (§1) Beispielsweise wurden die Verbindungen • A = 4,7-Dimorpholino-6-phenyl-2-piperazino-pteridin, • B = 4-Morpholino-7-(1-oxidothiomorpholino)-2-piperazino-6-phenyl-pteridin, • C = 7-Benzylamino-6-phenyl-2-piperazino-4-thiomorpholino- pteridin, • D = 7-Dimethylamino-6-phenyl-2-piperazino-4-pyrrolidino- pteridin und • E = 7-Benzylamino-4-(N-methyl-2'-hydroxyethylamino)-2-piperazino-pteridin auf ihre Hemmwirkung auf die Phosphodiesterase (PDE) von Tumorzellen und von Humanthrombozyten in vitro in Anlehnung an die von Pöch et al. beschriebenen Methode wie folgt untersucht (siehe Naunyn-Schmiedebergs Arch. Pharmak.
(§2) Die Phosphodiesterase wurde aus B16 Melanomgewebe von Mäusen durch Zentrifugation des Gewebehomogenates bei 5.000 x g (15 min. 4°C) gewonnen. Die Homogenisation der Gewebe erfolgte durch wiederholtes Frieren/Auftauen und Homogenisation nach Potter-Elvehjem bzw. durch Ultraschall. Der die PDE enthaltende Homogenat-Überstand wurde portioniert und bei -25°C tiefgefroren.
Die Gewinnung der Phosphordiesterase aus Humanthrombozyten erfolgte in gleicher Weise.
(§3) Die Bestimmung der PDE-Hemmung durch die Prüfsubstanzen erfolgte mit 1 µmol/l ^3H-cAMP als Substrat. Die PDE-Hemmung wurde durch Messung des Abbaus des eingesetzten Substrats ^3H-cAMP zu ^3H-AMP im Vergleich zur Kontrolle ohne Prüfsubstanz erfaßt.
(§4) Das gebildete ^3H-AMP wurde durch eine Zinksulfat-Bariumhydroxid-Fällung vom verbliebenen ^3H-CAMP abgetrennt.

Data set [2] deals with Mäusen. The data set can be described thus: Orientating acute toxicity in mice, single oral dose. The data set is classed as in vivo. The note with it: observation time 14 days; for Orientierende aktute Toxizität (Tiere gestorben): single oral dose of 250 mg, animals dead of animals treated; for Orientierende aktute Toxizität: single oral dose. From the text:
Die orientierende akute Toxizität der zu untersuchenden Substanzen wurde orientierend an Gruppen von je […] Mäusen nach oraler Gabe einer Einzeldosis bestimmt (Beobachtungszeit: 14 Tage) : […]

Data set [3] deals with Phosphodiesterase aus B16 Melanomgewebe von Mäusen. Put plainly: PDE inhibition (PDE assay), enzyme from B16 melanoma tissue, 3H-cAMP substrate. The data set is classed as biochemical. The note with it: PDE from mouse B16 melanoma tissue; 1 µmol/l 3H-cAMP as substrate; linear regression; read-out: PDE-Hemmung (IC50 in µmol/l) B16-Tumorzellen.
From the text: as §1, §2, §3, §4

pIC50: −log10 of the molar value.

For `c1ccc(-c2nc3c(N4CCOCC4)nc(N4CCNCC4)nc3nc2N2CCOCC2)cc1` [A, 4,7-Dimorpholino-6-phenyl-2-piperazino-pteridin], in data set [1], the pIC50 is 6.27. Moreover, in data set [2], the “Orientierende aktute Toxizität (Tiere gestorben)” value came to 0 von 5 and the “Orientierende aktute Toxizität” value was over 250 mg. Besides, the pIC50 in data set [3] is 5.37.

Consider `[O-][S+]1CCN(c2nc3nc(N4CCNCC4)nc(N4CCOCC4)c3nc2-c2ccccc2)CC1` [B, 4-Morpholino-7-(1-oxidothiomorpholino)-2-piperazino-6-phenyl-pteridin], for which the pIC50 in data set [1] was 5.66; in data set [3], 5.51.

With `c1ccc(CNc2nc3nc(N4CCNCC4)nc(N4CCSCC4)c3nc2-c2ccccc2)cc1` [C, 7-Benzylamino-6-phenyl-2-piperazino-4-thiomorpholino-pteridin], the values for the pIC50 in data set [1] and in data set [3] were 6.30 and 7.02, respectively. In addition, the “Orientierende aktute Toxizität (Tiere gestorben)” value in data set [2] is 0 von 5. Also, in data set [2], the “Orientierende aktute Toxizität” value was over 250 mg.

For `CN(C)c1nc2nc(N3CCNCC3)nc(N3CCCC3)c2nc1-c1ccccc1` [D, 7-Dimethylamino-6-phenyl-2-piperazino-4-pyrrolidino-pteridin], in data set [1], the pIC50 was 5.44. In data set [2], the “Orientierende aktute Toxizität (Tiere gestorben)” value came out at 0 von 5 and the “Orientierende aktute Toxizität” value was over 250 mg. Also, in data set [3], the pIC50 was 6.11.

Regarding `CN(CCO)c1nc(N2CCNCC2)nc2nc(NCc3ccccc3)cnc12` [E, 7-Benzylamino-4-(N-methyl-2'-hydroxyethylamino)-2-piperazino-pteridin], the pIC50 was 5.43 in data set [1] and 5.08 in data set [3]. For the same compound, the “Orientierende aktute Toxizität (Tiere gestorben)” value in data set [2] was 0 von 5. Further, in data set [2], the “Orientierende aktute Toxizität” value is given as over 250 mg.

(Values after patent publication EP0185259A2, “Pteridines, process for their preparation, and their use as intermediates or as medicaments” (Dr. Karl Thomae GmbH, priority 1984, dated 1986).)
